Tested on: Influenza A virus
Assay: Antiviral activity against Influenza A virus NA-H274Y (A/PR/8/34) infected in dog MDCK cells assessed as reduction in cytopathic effect incubated for 2 days
Type: functional, organism-based

Structure (SMILES)	EC50
O=C1c2c(O)c(=O)ccn2N([C@H]2c3ccc(F)cc3COc3ccccc32)[C@@H]2COCCN12	4.2 nM
O=C1c2c(O)c(=O)ccn2N([C@@H]2c3ccccc3OCc3c(Cl)cccc32)[C@@H]2COCCN12	20.5 nM
O=C1c2c(O)c(=O)ccn2N([C@@H]2c3ccccc3SCc3c2ccc(F)c3F)[C@@H]2COCCN12 [BALOXAVIR]	2.18 nM

Source: ChEMBL document CHEMBL6092174, “Synthesis and anti-influenza virus activity of substituted dibenzoxepine-based baloxavir derivatives” (Eur J Med Chem, 2024)
